Paper PMC5671725, “Fluorinated Adenosine A2A Receptor Antagonists Inspired by Preladenant as Potential Cancer Immunotherapeutics” (International Journal of Medicinal Chemistry, 2017)
Values after ≈ are worked out from the molar mass of the structure shown.

Experiments:
[1] = molecular target: T1, A2AR (Mus musculus, UniProt Q60613); design: endogenous in cells; method as in PMID 24126093; details: compared with xanthine 2; cited from earlier work
[2] = molecular target: T1, A2AR; design: endogenous in cells; host or cells: primary lymphocytes from the spleen of C57/BL6 mice; method as in PMID 24126093; details: compared with xanthine 2; cited from earlier work
[3] = molecular target: T1, A2AR; test: Inhibition of A2AR-induced (CGS21680) intracellular cAMP accumulation in lymphocytes; format: cell-based, C57/BL6 mice; design: endogenous in cells; host or cells: primary lymphocytes from the spleen of C57/BL6 mice; details: 1 µM CGS plus 1 μM compound, 15 min, cAMP ELISA
Procedure: Bioassay of compounds 27–31 and 40 and their parent compounds (4 and 5a) was conducted using two functional assays that evaluate A2AR binding-dependent signaling through A2AR on the surface of T cells. The first assay screens compounds on the basis of their extent of inhibition of A2AR-induced intracellular cAMP accumulation in A2AR expressing lymphocytes. The A2AR agonist, CGS21680 (CGS, 6), was used to activate A2AR.
Figure 4 Intracellular cAMP levels in lymphocytes after incubation with vehicle, 1 µM CGS, and 1 µM CGS plus 1 μM of compounds 4 (preladenant), 27–31, 5a (tozadenant), 40, 2 (KW-6002), and 3 (KW-PEG) are shown. The intracellular cAMP levels were determined 15 min following stimulation using quantitative cAMP ELISA and are expressed as fmol/10^6 cells. Data shown represent mean ± SEM of triplicate samples.
(§1) Measuring functionality of A2AR antagonism by cAMP assay
Stimulation of intracellular cAMP production and measurement of cAMP levels were performed as described previously.[18b] Lymphocytes were isolated from the spleen of C57/BL6 mice and suspended at a concentration of 400,000 cells/well, and then treated with 1 µM CGS 21680 6 (A2AR-specific agonist; from Tocris, Ellisville, MO) with or without KW-6002 2, KW-PEG 3, preladenant 4, tozadenant 5a and their PEGylated analogs 27-31 and 40 (at a concentration of […]). The cells were incubated for 15 min at 37 °C , and the reaction was stopped by addition of 1 N hydrochloric acid. Levels of cAMP were determined by ELISA (Amersham Biosciences, Buckinghamshire, UK). All treatment groups were performed in triplicate. […]

[4] = Log D7.4 shake-flask octanol-water; format: physicochemical; details: octanol / 10 mM sodium phosphate pH 7.4, read-out: logD7.4
Procedure: Determination of Physicochemical Properties […]
A shake-flask method was employed to determine octanol-water distribution coefficients at pH
7.4 (Log D7.4). The aqueous solution used was 10 mM sodium phosphate pH 7.4 buffer. The
method was validated for Log D7.4 ranging from -2 to 5.0. […]

[5] = Human plasma protein binding (equilibrium dialysis, RED device); format: in vitro ADME; details: pH 7.4, 10 µM initial concentration, 37°C, read-out: Human PPB (converted)
Procedure: Figure S1. Docking results of compounds 27-29 via Glide XP method. The H-bond interaction is represented as a pink arrow, pi-pi stacking as a green arrow. (A) Compound 27 docking pattern. (B) Compound 28 docking pose. (C) Compound 29 docking result. Pictures are rendered […]
(§2) Determination of Physicochemical Properties
(§3) Aqueous pH 7.4 Solubility
(§4) Compounds were dried down from 10 mM DMSO solutions using centrifugal evaporation techniques. Phosphate buffer (0.1 M pH 7.4) was added and StirStix inserted in the glass vials.
Agitation was then performed at a constant temperature of 25°C for 20 -24 hours. The vials were then subjected to double centrifugation (with a tip wash in between) to eliminate any residues of the dried compound. The solutions were then diluted and quantitated using LC/MS/MS.
A shake-flask method was employed to determine octanol-water distribution coefficients at pH 7.4 (Log D7.4). The aqueous solution used was 10 mM sodium phosphate pH 7.4 buffer. The method was validated for Log D7.4 ranging from -2 to 5.0.
Human Plasma Protein Binding (PPB)
PPB was determined using equilibrium dialysis (RED device) to separate free from bound compound. The amount of compound in plasma (10 µM initial concentration) and in dialysis […]
(§5) buffer (pH 7.4 phosphate buffer) was measured by LC-MS/MS after equilibration at 37°C in a dialysis chamber. The fraction unbound (fu) is reported.
(§6) In vitro intrinsic clearance was determined from human liver microsomes or rat hepatocytes using standard methods. Following incubation and preparation, the samples were analyzed using […]
(§7) µl/min/mg or µl/min/1 million cells.

[6] = Aqueous pH 7.4 solubility; format: physicochemical; details: aqueous buffer, thermodynamic from solid; 0.1 M phosphate buffer pH 7.4, 25°C, 20-24 hours
Procedure: as §2, §3, §4
Agitation was then performed at a constant temperature of 25°C for 20 -24 hours. The vials were then subjected to double centrifugation (with a tip wash in between) to eliminate any residues of the dried compound. The solutions were then diluted and quantitated using LC/MS/MS. […]

[7] = Intrinsic clearance in rat hepatocytes; format: in vitro ADME
Procedure: as §5, §6, §7

[8] = Intrinsic clearance in human liver microsomes; format: in vitro ADME; details: read-out: HLM CLint
Procedure: as §5, §6, §7

[9] = system: CL8-1 melanoma; design: method as in PMID 18163162, PMID 17404693, PMID 18404426, PMID 18311159, PMID 19201652; details: mice; cited from earlier work
[10] = molecular target: T1, A2AR; test: Cytokine release assay: IFN-gamma secretion by anti-CD3 activated splenocytes treated with CGS; format: cell-based, C57BL/6 mice; design: endogenous in cells; details: 0.1 µg/mL anti-CD3, 1 µM CGS plus 1 µM compound, one day, ELISA
Procedure: The second immunoassay assesses secretion of the cytokine IFN-gamma, since it is considered to be sensitive to the A2AR signaling pathway. In these assays, during T cell receptor (TCR) activation by the CD3 ligand, C57BL/6 mice splenocytes T cells are incubated with A2AR agonist CGS to inhibit IFN-gamma secretion resulting from A2AR-induced immunosuppression via intracellular cAMP. Effective A2AR antagonists block the A2AR-activated signal, thus restoring secretion of the cytokine to potentiate and prolong the immune response.
Figure 6 The IFN-gamma production by splenocytes after activation with 0.1 µg/mL anti-CD3 and when treated with vehicle, 1 µM CGS, and 1 µM CGS plus 1 µM compounds 29, 2 (KW-6002), 3 (KW-PEG), and 4 (preladenant) separately is shown. The IFN-gamma levels were determined in the supernatant one day following stimulation using quantitative ELISA and are expressed as pg/mL. Data shown represent mean ± SEM of triplicate samples.
as §1
Stimulation of intracellular cAMP production and measurement of cAMP levels were performed as described previously.[18b] […] Levels of cAMP were determined by ELISA (Amersham Biosciences, Buckinghamshire, UK). […]

[11] = molecular target: T2, A2ARs (Mus musculus, UniProt Q60613); test: Concanavalin A (ConA)-induced liver damage assay; format: in vivo; details: female C57BL/6 mice, 2 mg kg^-1 compound then Con A 20 mg kg^-1, evaluated at 8 h
T2 construct: from tissue; host or cells: whole animal, female C57BL/6 mice (in vivo)
Procedure: To select lead compounds for immunotherapy application, an in vivo Concanavalin A (ConA)-induced liver damage assay was carried out in C57BL/6 mice through the pharmacological activation and deactivation of A2ARs. A variety of compounds were screened including 2, 3, and 4 [10, 18, 19]. […] Fluorinated analogs were envisioned to potentially serve as leads to ultimately be labeled at the distal position with fluorine-18 (t1/2 = 109.8 min), for diagnostic imaging with positron emission tomography (PET). A series of fluorinated PEG groups with increasing chain lengths were proposed for chemical modification to map the structure-activity relationship (SAR). Such modifications increase both hydrophilicity and molecular weight (MW), potentially to reduce blood-brain barrier (BBB) penetration as predicted by the central nervous system multiparameter optimization (MPO) score reported by Wager et al..
Figure 2 ConA-induced liver damage in C57BL/6 mice via CGS (6), 2, 3 and 4. Female C57BL/6 mice (n = 5) were first injected with A2AR agonist CGS (6, 2 mg kg^−1), 2 mg kg^−1 2, 3, and 4 separately, and then Con A (20 mg kg^−1). Con A-induced liver damage evaluated at 8 h.

[12] = design: method as in PMID 24164628, PMID 25311639, PMID 25174927; details: Parkinson's disease; cited from earlier work

T1 sequence (Q60613 whole entry): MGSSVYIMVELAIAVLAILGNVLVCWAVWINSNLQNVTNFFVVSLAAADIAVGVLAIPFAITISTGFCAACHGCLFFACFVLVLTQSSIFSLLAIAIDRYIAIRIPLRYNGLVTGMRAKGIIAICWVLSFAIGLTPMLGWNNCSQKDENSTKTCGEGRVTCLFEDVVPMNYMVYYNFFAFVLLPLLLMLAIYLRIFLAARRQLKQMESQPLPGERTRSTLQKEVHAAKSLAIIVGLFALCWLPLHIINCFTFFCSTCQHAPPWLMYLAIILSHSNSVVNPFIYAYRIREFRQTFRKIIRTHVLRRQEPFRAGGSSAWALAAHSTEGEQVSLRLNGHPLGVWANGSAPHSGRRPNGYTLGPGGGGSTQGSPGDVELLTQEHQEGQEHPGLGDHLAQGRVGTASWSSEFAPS
T2 sequence (Q60613 whole entry): as above

SMILES | logD [4] | fraction unbound at 10 µM [5] | solubility [6] [µM] | Rat hepatocyte CLint [7] [μL/min/10^6] | microsomal CLint [8] [µL/min/mg] | Antagonism of CGS-mediated intracellular cAMP accumulation [3] | also measured
CCn1c(=O)c2c(nc(/C=C/c3ccc(C(=O)OCCOCCOCCOCCOCCOCCOCCOCCOC)c(OC)c3)n2C)n(CC)c1=O [Compound 3] |  |  |  |  |  |  | Cytokine IFN-gamma restoration [1]: enhanced properties; cAMP suppression [2]: enhanced properties
COc1ccc(N2CCOCC2)c2sc(NC(=O)N3CCC(C)(O)CC3)nc12 [Compound 5a, tozadenant, reference compound] |  |  |  |  |  | inferior antagonism to that of compounds 2 and 3 | 
COCCOCCOCCOCCOCCOCCOCCOCCOc1ccc(N2CCN(CCn3ncc4c3nc(N)n3nc(-c5ccco5)nc43)CC2)cc1 [Compound 31] |  |  |  |  |  | decreased antagonism | 
Nc1nc2c(cnn2CCN2CCN(c3ccc(OCCF)cc3)CC2)c2nc(-c3ccco3)nn12 [Compound 27] | 2.8 | 0.01 | 74 (≈ 36.4 µg/mL) | 29.9 | 16.5 |  | 
Nc1nc(NCCc2ccc(O)cc2)nc2nc(-c3ccco3)nn12 [Compound 1, ZM241385] |  |  |  |  |  |  | Growth of CL8-1 melanoma [9]: delayed growth of CL8-1 melanoma in mice; Levels of endogenous antitumor T cells [9]: increased levels of endogenous antitumor T cells
COCCOc1ccc(N2CCN(CCn3ncc4c3nc(N)n3nc(-c5ccco5)nc43)CC2)cc1 [Compound 4, preladenant] |  |  |  |  |  |  | Restoration of IFN-gamma secretion [10]: superior restoration of IFN-gamma secretion compared to either 2 or 3; ConA-induced liver damage [11]: most severe immune induced liver damage; Efficacy in Phase III trials [12]: failed to show efficacy
COCCOCCOCCOCCOCCOCCOCCOCCOc1ccc(N2CCN(C(=O)Nc3nc4c(OC)ccc(N5CCOCC5)c4s3)CC2)cc1 [Compound 40] |  |  |  |  |  | no suppression of intracellular cAMP accumulation | 
Nc1nc2c(cnn2CCN2CCN(c3ccc(OCCOCCOCCOCCOCCOCCF)cc3)CC2)c2nc(-c3ccco3)nn12 [Compound 30] |  |  |  |  |  | decreased antagonism | 

Second part, led by results:

logD [4] | fraction unbound at 10 µM [5] | solubility [6] [µM] | Rat hepatocyte CLint [7] [μL/min/10^6] | microsomal CLint [8] [µL/min/mg] | SMILES | Antagonism of CGS-mediated intracellular cAMP accumulation [3] | also measured
2.5 | 0.013 | 2 (≈ 1.07 µg/mL) | 12.8 | 71.9 | Nc1nc2c(cnn2CCN2CCN(c3ccc(OCCOCCF)cc3)CC2)c2nc(-c3ccco3)nn12 [Compound 28] |  | 
2.3 | 0.017 | 10 (≈ 5.8 µg/mL) | 72.9 | 66.1 | Nc1nc2c(cnn2CCN2CCN(c3ccc(OCCOCCOCCF)cc3)CC2)c2nc(-c3ccco3)nn12 [Compound 29] |  | Restoration of IFN-gamma secretion [10]: superior restoration of IFN-gamma secretion compared to either 2 or 3
